US8293774B2, “Optically active (R)-aryloxypropionic acid amides and herbicidal composition comprising same” (Kyung Nong Corporation, priority 2007, dated 2012)

Tests used:
[1] = system: HORVU (Hordeum vulgare L., barley); assay: Weed control test, foliage treatment (Test Example 1, Table 7); conditions: in vivo
[2] = system: TRZAW (Tritium aestivum L., wheat); assay: as above; conditions: in vivo
[3] = system: GLXMA (Glycine max(L.) MERR, soy bean); assay: as above; conditions: in vivo
[4] = system: ORYSA (Oryza sativa cv. Dongjin, rice); assay: as above; conditions: in vivo
[5] = system: ZEAMX (Zea mays L., corn); assay: as above; format: in vivo; conditions: Zea mays, foliar, read-out: Plant damage (herbicidal activity), visually evaluated, ZEAMX; for plant injury at 25 g/ha: 0.025 kg/ha; for plant injury at 100 g/ha: 0.1 kg/ha; for plant injury at 200 g/ha: 0.2 kg/ha
Summary of the method: (§1)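 Greenhouse pot plants in sandy loam at 20 to 30 °C, grown to the 3-leaf stage of barnyard grass. Foliage sprayed at 2,000 l/ha with a water-diluted emulsion of compound, acetone and Tween 80 (1:5:1 by weight). Damage scored visually, 1 to 100% versus untreated control, at 10 and 20 days.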

[6] = system: ARTHIS (Arthraxon hispidus (Thunb.) Makino, creek grass); assay: as above; format: in vivo; conditions: Arthraxon hispidus, foliar, read-out: Plant damage (herbicidal activity), visually evaluated, ARTHIS; for pest or weed control at 25 g/ha: 0.025 kg/ha; for pest or weed control at 100 g/ha: 0.1 kg/ha; for pest or weed control at 200 g/ha: 0.2 kg/ha
Summary of the method: as §1

[7] = system: DIGSA (Digitaria Sanguinalis (L.) SCOP, large crabgrass); assay: as above; format: in vivo; conditions: Digitaria sanguinalis, foliar, read-out: Plant damage (herbicidal activity), visually evaluated, DIGSA; for pest or weed control at 25 g/ha: 0.025 kg/ha; for pest or weed control at 100 g/ha: 0.1 kg/ha; for pest or weed control at 200 g/ha: 0.2 kg/ha
Summary of the method: as §1

[8] = system: SORBI (Andropogon sorghum, common sorgum); assay: as above; format: in vivo; conditions: Sorghum bicolor, foliar, read-out: Plant damage (herbicidal activity), visually evaluated, SORBI; for pest or weed control at 25 g/ha: 0.025 kg/ha; for pest or weed control at 100 g/ha: 0.1 kg/ha; for pest or weed control at 200 g/ha: 0.2 kg/ha
Summary of the method: as §1

[9] = system: ECHOG (Echinoch crus-galli Beauv. var. caudata Kitagawa, barnyard grass); assay: as above; format: in vivo; conditions: Echinochloa crus-galli, foliar, 3-leaf stage, read-out: Plant damage (herbicidal activity), visually evaluated, ECHOG; for pest or weed control at 25 g/ha: 0.025 kg/ha; for pest or weed control at 100 g/ha: 0.1 kg/ha; for pest or weed control at 200 g/ha: 0.2 kg/ha
Summary of the method: as §1

[10] = system: PANDI (Panium dichotomiflorum Michx, fall panicum); assay: as above; format: in vivo; conditions: Panicum dichotomiflorum, foliar, read-out: Plant damage (herbicidal activity), visually evaluated, PANDI; for pest or weed control at 25 g/ha: 0.025 kg/ha; for pest or weed control at 100 g/ha: 0.1 kg/ha; for pest or weed control at 200 g/ha: 0.2 kg/ha
Summary of the method: as §1

[11] = system: SETVIR (Setaria viridis (L.) Beauv, green foxtail); assay: as above; format: in vivo; conditions: Setaria viridis, foliar, read-out: Plant damage (herbicidal activity), visually evaluated, SETVIR; for pest or weed control at 25 g/ha: 0.025 kg/ha; for pest or weed control at 100 g/ha: 0.1 kg/ha; for pest or weed control at 200 g/ha: 0.2 kg/ha
Summary of the method: as §1

Echinochloa oryzicola = assay: Foliage treatment with emulsions, dry rice field conditions (Test Example 2, Table 9); format: in vivo; conditions: 150 g a.i./ha; emulsion of Formulation Example 3; division stage 1~2; 20 days after foliage treatment
Excerpt: (§2) Seeds of rice (Nampyung rice) and barnyard grasses (Echinochloa oryzicola and Echinochloa crus-galli var. crus-galli) were placed in sandy loam of pots, covered with soil, and grown in the dry rice field conditions.
(§3) Rice (6˜6.5-leaf stage, plant height 33.2 cm) and barnyard grasses (Echinochloa oryzicola: division stage 1˜2, plant height 38.0 cm, Echinochloa crus-galli var. crus-galli: division stage 1˜2, plant height 44.1 cm) were subjected to a foliage treatment with emulsions prepared according to Formulation Example 3 by using compounds of Examples 1, 5 and 13 (purity: 99% or more), wherein the emulsions were sprayed to the plants at a dosage of the active compound of 150 g/ha.
(§4) The herbicidal effect on the barnyard grasses and harmful effect on the rice of the test compounds at 20 days and 30 days after the foliage treatment were visually evaluated as in Test Example 1 in comparison with the untreated control, and the results are shown in Table 9.

[12] = system: Echinochloa crus-galli var. crus-galli; assay: as above; format: in vivo; conditions: 150 g a.i./ha; emulsion of Formulation Example 3; division stage 1~2; 20 days after foliage treatment
Excerpt: as §2, §3, §4

Rice = assay: Weed control test, 4-leaf stage plants (Test Example 1, Table 8); conditions: in vivo
Description: (§5) Seeds of rice, wheat, soy bean, barley, corn, common sorgum, barnyard grass, large crabgrass, creek grass, green foxtail and fall panicum were placed in sandy loam in 600 cm^2 pots and covered with soil. After keeping the pots in a greenhouse at 20 to 30° C. allowing growth of the plants to the 3-leaf stage of the barnyard grass, 2,000 l/ha of an emulsion obtained by diluting with water a mixture of 1 part by weight of a test compound, 5 parts by weight of acetone and 1 part by weight of an emulsifying agent (Tween 80, Junsei) was applied to the surface of the foliage of the plants. The plant damage at 10 days and 20 days after the foliage treatment was visually evaluated from the level of 1 to 100% by comparison with the untreated control: […]

rice (Nampyung rice) = assay: Foliage treatment with emulsions, dry rice field conditions, harmful effect on rice (Test Example 2, Table 9); format: in vivo; conditions: 6~6.5-leaf stage, 150 g a.i./ha, emulsion; for Harmful effect, 20 days: 20 days after foliage treatment; for Harmful effect, 30 days: 30 days after foliage treatment
Excerpt: as §2

Barnyard grass = assay: Weed control test, 4-leaf stage plants (Test Example 1, Table 8); format: in vivo, Echinoch crus-galli Beauv. var. caudata Kitagawa
Excerpt: as §5, with “[…],” for “After keeping the pots in a greenhouse at 20 to 30° C. allowing growth of the plants to the 3-leaf stage of the barnyard grass,”

With `C[C@@H](Oc1ccc(Oc2nc3ccc(Cl)cc3o2)cc1)C(=O)Nc1nc2cc(Cl)ccc2o1` [Example 1, (R)-2-[4-(6-chloro-2-benzoxazolyloxy)phenoxy]propionic acid-N-(5-chloro-2-benzoxazolyl)amide] the “Plant damage (herbicidal activity), visually evaluated, HORVU” value [1] was 0%, the “Plant damage (herbicidal activity), visually evaluated, TRZAW” value (“Plant damage (herbicidal activity) … TRZAW” for short) [2] was 0% and the “Plant damage (herbicidal activity), visually evaluated, GLXMA” value (“Plant damage (herbicidal activity) … GLXMA” for short) [3] was 0%. For the same molecule, the “Plant damage (herbicidal activity), visually evaluated, ORYSA” value [4] was 0%, the plant injury at 25 g/ha [5] was 30% and the plant injury at 100 g/ha [5] was 100%. For the same molecule, the plant injury at 200 g/ha [5] was 100%, the pest or weed control at 25 g/ha [6] was 70% and the pest or weed control at 100 g/ha [6] was 100%. The pest or weed control at 200 g/ha [6] was 100%, the pest or weed control at 25 g/ha [7] was 90% and the pest or weed control at 100 g/ha [7] was 100%. The pest or weed control at 200 g/ha [7] was 100%, the pest or weed control at 25 g/ha [8] was 60% and the pest or weed control at 100 g/ha [8] was 100%. For the same molecule, the pest or weed control at 200 g/ha [8] was 100%, the pest or weed control at 25 g/ha [9] was 95% and the pest or weed control at 100 g/ha [9] was 100%. For the same molecule, the pest or weed control at 200 g/ha [9] was 100%, the pest or weed control at 25 g/ha [10] was 90% and the pest or weed control at 100 g/ha [10] was 100%. The pest or weed control at 200 g/ha [10] was 100%, the pest or weed control at 25 g/ha [11] was 70% and the pest or weed control at 100 g/ha [11] was 100%. For the same molecule, the pest or weed control at 200 g/ha [11] was 100%, the “Herbicidal effect (0~100), 20 days, Echinochloa oryzicola” value (Echinochloa oryzicola) was 100% and the “Herbicidal effect (0~100), 20 days, Echinochloa crus-galli var. crus-galli” value [12] was 100%. For the same molecule, the “Plant damage (herbicidal activity), visually evaluated, Rice” value (Rice) was 0%, the “Harmful effect, 20 days” value (rice (Nampyung rice)) was 0% and the “Harmful effect, 30 days” value (rice (Nampyung rice)) was 0%. The “Plant damage (herbicidal activity), visually evaluated, Barnyard grass” value (“Plant damage … Barnyard grass” for short) (Barnyard grass; 0.025 kg/ha) was 70%, the “Plant damage … Barnyard grass” value (Barnyard grass; 0.05 kg/ha) was 90% and the “Plant damage … Barnyard grass” value (Barnyard grass; 0.1 kg/ha) was 100%. The “Plant damage … Barnyard grass” value (Barnyard grass; 0.4 kg/ha) was 100%.

In the case of `C[C@@H](Oc1ccc(Oc2nc3ccc(Cl)cc3o2)cc1)C(=O)Nc1nc2ccccc2s1` [Example 5, (R)-2-[4-(6-chloro-2-benzoxazolyloxy)phenoxy]propionic acid-N-(2-benzothiazolyl)amide], the “Plant damage (herbicidal activity) … TRZAW” value [2] is reported as 0%, the “Plant damage (herbicidal activity) … GLXMA” value [3] is reported as 0% and the plant injury at 25 g/ha [5] is reported as 60%. For the same molecule, the plant injury at 100 g/ha [5] was 100%, the plant injury at 200 g/ha [5] was 100% and the pest or weed control at 25 g/ha [6] was 40%. It also gave a pest or weed control at 100 g/ha [6] of 100%, a pest or weed control at 200 g/ha [6] of 100% and a pest or weed control at 25 g/ha [7] of 95%. For the same molecule, the pest or weed control at 100 g/ha [7] was 100%, the pest or weed control at 200 g/ha [7] was 100% and the pest or weed control at 25 g/ha [8] was 25%. For the same molecule, the pest or weed control at 100 g/ha [8] was 100%, the pest or weed control at 200 g/ha [8] was 100% and the pest or weed control at 25 g/ha [9] was 95%. It also gave a pest or weed control at 100 g/ha [9] of 100%, a pest or weed control at 200 g/ha [9] of 100% and a pest or weed control at 25 g/ha [10] of 90%. The pest or weed control at 100 g/ha [10] was 100%, the pest or weed control at 200 g/ha [10] was 100% and the pest or weed control at 25 g/ha [11] was 80%. The pest or weed control at 100 g/ha [11] was 100%, the pest or weed control at 200 g/ha [11] was 100% and the “Herbicidal effect (0~100), 20 days, Echinochloa oryzicola” value (Echinochloa oryzicola) was 100%. The “Herbicidal effect (0~100), 20 days, Echinochloa crus-galli var. crus-galli” value [12] was 100%, the “Plant damage (herbicidal activity), visually evaluated, Rice” value (Rice) was 0% and the “Harmful effect, 20 days” value (rice (Nampyung rice)) was 0%. The “Harmful effect, 30 days” value (rice (Nampyung rice)) was 0%, the “Plant damage … Barnyard grass” value (Barnyard grass; 0.025 kg/ha) was 70% and the “Plant damage … Barnyard grass” value (Barnyard grass; 0.05 kg/ha) was 95%. For the same molecule, the “Plant damage … Barnyard grass” value (Barnyard grass; 0.1 kg/ha) was 100% and the “Plant damage … Barnyard grass” value (Barnyard grass; 0.4 kg/ha) was 100%.

In the case of `COc1ccc2nc(NC(=O)[C@@H](C)Oc3ccc(Oc4nc5ccc(Cl)cc5o4)cc3)sc2c1` [Example 13, (R)-2-[4-(6-chloro-2-benzoxazolyloxy)phenoxy]propionic acid-N-(6-methoxy-2-benzothiazolyl)amide], the “Plant damage (herbicidal activity) … TRZAW” value [2] is reported as 0%, the “Plant damage (herbicidal activity) … GLXMA” value [3] is reported as 0% and the plant injury at 25 g/ha [5] is reported as 40%. It also gave a plant injury at 100 g/ha [5] of 100%, a plant injury at 200 g/ha [5] of 100% and a pest or weed control at 25 g/ha [6] of 50%. It also gave a pest or weed control at 100 g/ha [6] of 100%, a pest or weed control at 200 g/ha [6] of 100% and a pest or weed control at 25 g/ha [7] of 75%. It also gave a pest or weed control at 100 g/ha [7] of 100%, a pest or weed control at 200 g/ha [7] of 100% and a pest or weed control at 25 g/ha [8] of 30%. It also gave a pest or weed control at 100 g/ha [8] of 100%, a pest or weed control at 200 g/ha [8] of 100% and a pest or weed control at 25 g/ha [9] of 70%. The pest or weed control at 100 g/ha [9] was 100%, the pest or weed control at 200 g/ha [9] was 100% and the pest or weed control at 25 g/ha [10] was 20%. The pest or weed control at 100 g/ha [10] was 100%, the pest or weed control at 200 g/ha [10] was 100% and the pest or weed control at 25 g/ha [11] was 50%. The pest or weed control at 100 g/ha [11] was 100%, the pest or weed control at 200 g/ha [11] was 100% and the “Herbicidal effect (0~100), 20 days, Echinochloa oryzicola” value (Echinochloa oryzicola) was 70%. For the same molecule, the “Herbicidal effect (0~100), 20 days, Echinochloa crus-galli var. crus-galli” value [12] was 80%, the “Harmful effect, 20 days” value (rice (Nampyung rice)) was 10% and the “Harmful effect, 30 days” value (rice (Nampyung rice)) was 0%. The “Plant damage … Barnyard grass” value (Barnyard grass; 0.025 kg/ha) was 20%, the “Plant damage … Barnyard grass” value (Barnyard grass; 0.05 kg/ha) was 50% and the “Plant damage … Barnyard grass” value (Barnyard grass; 0.1 kg/ha) was 70%. The “Plant damage … Barnyard grass” value (Barnyard grass; 0.4 kg/ha) was 100%.
